Experimental data reported in patent publication US9149038B2, “4-amino-6-(heterocyclic)picolinates and 6-amino-2-(heterocyclic)pyrimidine-4-carboxylates and their use as herbicides” (Dow AgroSciences LLC, priority 2013, dated 2015).
Where two headings read alike, the source gives them in different places.

How the values were obtained:
[1] = tested on: Key Broadleaf Weed and Crop Species; test: Post-Emergent Test II: postemergent herbicidal activity, visual rating after 14 d (Table 7); type: in vivo; conditions: post-emergence, 336 h; for pest or weed control at 35 g/ha: 35 g ai/ha; for pest or weed control at 70 g/ha: 70 g ai/ha; for pest or weed control at 140 g/ha: 140 g ai/ha
In short: (§1)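 Greenhouse plants at first or second true leaf stage sprayed with compound in acetone/DMSO-based spray solution with crop oil concentrate and Triton X-155 at 187 L/ha, tested at highest rate and ½× to 1/16× dilutions; solvent blank controls. Injury rated visually 0–100% versus untreated plants after 14 d.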

[2] = tested on: Key Grass and Sedge Weeds as well as Grass Crops; test: Post-Emergent Test II: postemergent herbicidal activity, visual rating after 14 d (Table 8); type: in vivo; conditions: post-emergence, 336 h; for pest or weed control at 35 g/ha: 35 g ai/ha; for pest or weed control at 70 g/ha: 70 g ai/ha; for pest or weed control at 140 g/ha: 140 g ai/ha
In short: as §1

[3] = lambsquarters (Chenopodium album), read-out: Visual Growth Reduction (%) 14 Days After Application CHEAL
[4] = oilseed rape, canola (Brassica napus), read-out: Visual Growth Reduction (%) 14 Days After Application BRSNN
[5] = redroot pigweed (Amaranthus retroflexus), read-out: Visual Growth Reduction (%) 14 Days After Application AMARE
[6] = sunflower (Helianthus annuus), read-out: Visual Growth Reduction (%) 14 Days After Application HELAN
[7] = velvetleaf (Abutilon theophrasti), read-out: Visual Growth Reduction (%) 14 Days After Application ABUTH
[8] = wild poinsettia (Euphorbia heterophylla), read-out: Visual Growth Reduction (%) 14 Days After Application EPHHL
[9] = barnyardgrass (Echinochloa crus-galli), read-out: Visual Growth Reduction (%) 14 Days After Application ECHCG
[10] = giant foxtail (Setaria faberi), read-out: Visual Growth Reduction (%) 14 Days After Application SETFA
[11] = maize, corn (Zea mays), read-out: Visual Growth Reduction (%) 14 Days After Application ZEAMX
[12] = rice (Oryza sativa), read-out: Visual Growth Reduction (%) 14 Days After Application ORYSA
[13] = wheat, spring (Triticum aestivum), read-out: Visual Growth Reduction (%) 14 Days After Application TRZAS
[14] = yellow nutsedge (Cyperus esculentus), read-out: Visual Growth Reduction (%) 14 Days After Application CYPES

Compound | pest or weed control at 35 g/ha [1, 3] [%] | pest or weed control at 70 g/ha [1, 3] [%] | pest or weed control at 140 g/ha [1, 3] [%] | pest or weed control at 35 g/ha [1, 4] [%] | pest or weed control at 70 g/ha [1, 4] [%] | pest or weed control at 140 g/ha [1, 4] [%] | pest or weed control at 35 g/ha [1, 5] [%] | pest or weed control at 70 g/ha [1, 5] [%] | pest or weed control at 140 g/ha [1, 5] [%] | pest or weed control at 35 g/ha [1, 6] [%] | pest or weed control at 70 g/ha [1, 6] [%] | pest or weed control at 140 g/ha [1, 6] [%] | pest or weed control at 35 g/ha [1, 7] [%] | pest or weed control at 70 g/ha [1, 7] [%] | pest or weed control at 140 g/ha [1, 7] [%] | pest or weed control at 35 g/ha [1, 8] [%] | pest or weed control at 70 g/ha [1, 8] [%] | pest or weed control at 140 g/ha [1, 8] [%] | pest or weed control at 35 g/ha [2, 9] [%] | pest or weed control at 70 g/ha [2, 9] [%] | further results
COC(=O)c1nc(-c2cccc3c2OC(F)(F)O3)c(F)c(N)c1Cl [Compound 73] | 95 to 100 | 95 to 100 | 95 to 100 | 85 to 94 | 95 to 100 | 95 to 100 | 95 to 100 | 95 to 100 | 95 to 100 | 75 to 84 | 85 to 94 | 95 to 100 | 75 to 84 | 75 to 84 | 85 to 94 | 0 to 29 | 0 to 29 | 0 to 29 | 0 to 29 | 0 to 29 | pest or weed control at 140 g/ha [2, 9]: 0 to 29%; pest or weed control at 35 g/ha [2, 10]: 0 to 29%; pest or weed control at 70 g/ha [2, 10]: 0 to 29%; pest or weed control at 140 g/ha [2, 10]: 0 to 29%; pest or weed control at 35 g/ha [2, 11]: 0 to 29%; pest or weed control at 70 g/ha [2, 11]: 0 to 29%; pest or weed control at 140 g/ha [2, 11]: 0 to 29%; pest or weed control at 35 g/ha [2, 12]: 0 to 29%; pest or weed control at 70 g/ha [2, 12]: 0 to 29%; pest or weed control at 140 g/ha [2, 12]: 0 to 29%; pest or weed control at 35 g/ha [2, 13]: 0 to 29%; pest or weed control at 70 g/ha [2, 13]: 0 to 29%; pest or weed control at 140 g/ha [2, 13]: 0 to 29%; pest or weed control at 35 g/ha [2, 14]: 0 to 29%; pest or weed control at 70 g/ha [2, 14]: 45 to 59%; pest or weed control at 140 g/ha [2, 14]: 45 to 59%
Nc1c(F)c(-c2cccc3c2OC(F)(F)O3)nc(C(=O)O)c1Cl [Compound 74] | 85 to 94 | 95 to 100 | 95 to 100 | 75 to 84 | 85 to 94 | 95 to 100 | 95 to 100 | 95 to 100 | 95 to 100 | 75 to 84 | 75 to 84 | 85 to 94 | 0 to 29 | 30 to 44 | 45 to 59 | 0 to 29 | 0 to 29 | 0 to 29 | 0 to 29 | 0 to 29 | pest or weed control at 140 g/ha [2, 9]: 0 to 29%; pest or weed control at 35 g/ha [2, 10]: 0 to 29%; pest or weed control at 70 g/ha [2, 10]: 0 to 29%; pest or weed control at 140 g/ha [2, 10]: 0 to 29%; pest or weed control at 35 g/ha [2, 12]: 0 to 29%; pest or weed control at 70 g/ha [2, 12]: 0 to 29%; pest or weed control at 140 g/ha [2, 12]: 0 to 29%; pest or weed control at 35 g/ha [2, 13]: 0 to 29%; pest or weed control at 70 g/ha [2, 13]: 0 to 29%; pest or weed control at 140 g/ha [2, 13]: 0 to 29%; pest or weed control at 35 g/ha [2, 14]: 0 to 29%; pest or weed control at 70 g/ha [2, 14]: 0 to 29%; pest or weed control at 140 g/ha [2, 14]: 0 to 29%
COC(=O)c1nc(-c2ccc(Cl)c3c2OC(F)(F)O3)c(F)c(N)c1Cl [Compound 75] | 95 to 100 | 95 to 100 | 95 to 100 | 75 to 84 | 85 to 94 | 95 to 100 | 95 to 100 | 95 to 100 | 95 to 100 | 95 to 100 | 95 to 100 | 95 to 100 | 85 to 94 | 95 to 100 | 95 to 100 | 0 to 29 | 0 to 29 | 0 to 29 | 0 to 29 | 0 to 29 | pest or weed control at 140 g/ha [2, 9]: 0 to 29%; pest or weed control at 35 g/ha [2, 10]: 0 to 29%; pest or weed control at 70 g/ha [2, 10]: 0 to 29%; pest or weed control at 140 g/ha [2, 10]: 0 to 29%; pest or weed control at 35 g/ha [2, 11]: 95 to 100%; pest or weed control at 70 g/ha [2, 11]: 95 to 100%; pest or weed control at 140 g/ha [2, 11]: 95 to 100%; pest or weed control at 35 g/ha [2, 12]: 0 to 29%; pest or weed control at 70 g/ha [2, 12]: 0 to 29%; pest or weed control at 140 g/ha [2, 12]: 0 to 29%; pest or weed control at 35 g/ha [2, 13]: 0 to 29%; pest or weed control at 70 g/ha [2, 13]: 0 to 29%; pest or weed control at 140 g/ha [2, 13]: 0 to 29%; pest or weed control at 35 g/ha [2, 14]: 0 to 29%; pest or weed control at 70 g/ha [2, 14]: 0 to 29%; pest or weed control at 140 g/ha [2, 14]: 45 to 59%
